Data from US20260347387A1, “Lipid-Gold Salt Molecules and Formulation in Lipid Nanoparticle Delivery Systems” (NORTHWESTERN UNIVERSITY, priority 2023, published 2026).

System: TOV-21G ovarian cancer cells
Test: Cell viability assay, TOV-21G clear cell ovarian cancer cells
Assay type: cell-based
Details: Table C, FIGS. 24, 25
Protocol: In vitro cellular viability assay. ES-2 (2,500 cells/well), 786-0 ccRCCa (400 cells/well), Ramos (16,000 cells/well), SUDHL4 (16,000 cells/well), Jurkat (16,000 cells/well), CWR-R1 (1,000 cells/well), LNCaP (2,000 cells/well), and 22rv1 (2,000 cells/well) were plated into 96 well plates. Adherent ES-2, CWR-R1, LNCaP, 22rv1, and 786-0 cells were incubated for 24 h. Media in the wells was then replaced with pre-prepared media containing the appropriate drug formulations at the appropriate drug concentration. Ramos, SUDHL4, and Jurkat cells are suspension cell lines and were plated and treated on the same day. After 72 h, cell viability was measured via an MTS cell-proliferation assay (CellTiter 96 Aqueous One, Promega; Madison, WI) and the relative cell-survival percentages compared to the vehicle control were plotted against the concentration of either the AuNP or the oc-HDL NPs in logarithmic scale. The data reported represent an average of three measurements.
Addition of gold salts to HDL-NPs disclosed herein decreased cell viability more than the addition of gold salts to oc-HDL NPs disclosed herein in a clear cell ovarian cancer model (TOV-21Gcell line). Cells were treated with gold-bearing HDL-NPs or gold salts as disclosed herein in an assay described in the Materials and protocols for in vitro studies section above.

Q: Which IC50 does the source give for `CCP(CC)CC.[Au+].[Cl-]` [Et3PAuCl, Chloro(triethylphosphine)gold(I)] here?
A: 9.74 nM
